Assay results: US11000033B2, “Ketone or oxime compound, and herbicide” (NISSAN CHEMICAL CORPORATION, priority 2014, dated 2021)

Key:
Type in all cases: in vivo
Chenopodium album = assay: Test Example 5: herbicidal effect by foliage application, plastic box (symbol O); conditions: 320 g/ha, 3 weeks after application
In short: (§1)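 Seeds were sown in sterilized diluvial soil, covered with about 1.5 cm of soil and grown 14 days in a greenhouse at 25° C. to 30° C. An emulsifiable formulation diluted in water to a set rate was sprayed over foliage, and injury was scored 3 weeks later.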

[1] = tested on: directly sowed rice plant; assay: Test Example 3: effect on crop by foliage application, Wagner pot (symbol b); conditions: application herbicide amount 320 g/ha
In short: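 Alluvial soil in a 1/10000-are Wagner pot was flooded to a water depth of 0.1–0.5 cm. Echinochloa crus-galli var. crus-galli, Leptochloa chinensis, Cyperus difformis and rice were sown into it and grown in a greenhouse at 25–30 °C.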

Apera spica-venti = assay: Test Example 4: herbicidal effect by soil treatment (symbol L); conditions: application herbicide amount 320 g/ha
In short: (§2)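 Seeds were sown in sterilized diluvial soil, covered with about 1.5 cm of soil, and the soil surface was sprayed with a water-diluted emulsion of the compound at a predetermined rate. Plants grew in a greenhouse at 25° C. to 30° C.; effects were scored visually 3 weeks after application.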

Abutilon theophrasti = assay: Test Example 5: herbicidal effect by foliage application, plastic box (symbol M); conditions: 320 g/ha, 3 weeks after application
In short: as §1

corn = assay: Test Example 4: effect on crop by soil treatment (symbol c); conditions: application herbicide amount 320 g/ha
In short: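 Seeds were sown in spots on sterilized diluvial soil in a plastic box and covered with about 1.5 cm of soil. Plants were then grown in a greenhouse at 25° C. to 30° C.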

Monochoria vaginalis = assay: Test Example 1: herbicidal activity, application before weed generation in submerged conditions (symbol C); conditions: application herbicide amount 320 g/ha
In short: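 Scores run 0 to 5 by herbicidal ratio, with 5 meaning 90% or more and 0 meaning 5% or lower, read 3 weeks after treatment. Compound was applied as a diluted emulsion to the water surface of submerged alluvial-soil pots on the day weed seeds were sown.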

[2] = tested on: Echinochloa crus-galli var. crus-galli; assay: Test Example 3: herbicidal effect by foliage application, Wagner pot (symbol H); conditions: application herbicide amount 320 g/ha
In short: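 Rating at 3 weeks post-spray, by defined criteria. Treatment: emulsion diluted with water to a predetermined amount, applied evenly to foliage of 14-day-old plants raised in alluvial soil flooded 0.1–0.5 cm deep at 25–30 °C, rice co-sown.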

[3] = tested on: Echinochloa crus-galli var. crus-galli; assay: Test Example 5: herbicidal effect by foliage application, plastic box (symbol H); conditions: 320 g/ha, 3 weeks after application
In short: as §1

Alopecurus myosuroides = assay: Test Example 4: herbicidal effect by soil treatment (symbol J); conditions: application herbicide amount 320 g/ha
In short: as §2

Veronica persica = assay: Test Example 5: herbicidal effect by foliage application, plastic box (symbol R); conditions: 320 g/ha, 3 weeks after application
In short: as §1

wheat = assay: Test Example 5: effect on crop by foliage application, plastic box (symbol e); conditions: 320 g/ha, 3 weeks after application
In short: (§3)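 Diluvial soil, sterilized and boxed (21 × 13 × 7 cm), received spot-sown seed covered by about 1.5 cm soil; plants were then greenhouse-grown at 25–30° C.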

Lolium multiflorum Lam. = assay: Test Example 4: herbicidal effect by soil treatment (symbol K); conditions: application herbicide amount 320 g/ha
In short: as §2

Amaranthus retroflexus = assay: Test Example 4: herbicidal effect by soil treatment (symbol N); conditions: application herbicide amount 320 g/ha
In short: as §2

soybean = assay: Test Example 5: effect on crop by foliage application, plastic box (symbol d); conditions: 320 g/ha, 3 weeks after application
In short: as §3

Setaria viridis = assay: Test Example 5: herbicidal effect by foliage application, plastic box (symbol G); conditions: 320 g/ha, 3 weeks after application
In short: as §1

SMILES | O: Chenopodium album, herbicidal effect grade (Chenopodium album) | effect on crop b (directly sowed rice plant), grade 0-5 [1] | L (Apera spica-venti) herbicidal effect grade (Apera spica-venti) | M: Abutilon theophrasti, herbicidal effect grade (Abutilon theophrasti) | c (corn) effect on crop grade (corn) | Herbicidal effect grade, C: Monochoria vaginalis (Monochoria vaginalis) | herbicidal effect on H (Echinochloa crus-galli var. crus-galli), grade 0-5 [2] | H: Echinochloa crus-galli var. crus-galli, herbicidal effect grade [3] | J (Alopecurus myosuroides) herbicidal effect grade (Alopecurus myosuroides) | R: Veronica persica, herbicidal effect grade (Veronica persica) | e: wheat, effect on crop grade (wheat) | K (Lolium multiflorum Lam.) herbicidal effect grade (Lolium multiflorum Lam.) | N (Amaranthus retroflexus) herbicidal effect grade (Amaranthus retroflexus) | d: soybean, effect on crop grade (soybean) | G: Setaria viridis, herbicidal effect grade (Setaria viridis) | also measured
CON=CC(C)(C)C1CC(O)=C(c2c(C)cc(C)cc2C)C1=O (centres unmarked) [1-030] | 0 (Herbicidal ratio of 5% or lower (almost no effect)) | 5 (Herbicidal ratio of 90% or more (almost completely withered)) | 3 (Herbicidal ratio of 40% or higher and lower than 70%) | 0 (Herbicidal ratio of 5% or lower (almost no effect)) | 0 (Herbicidal ratio of 5% or lower (almost no effect)) | 0 (Herbicidal ratio of 5% or lower (almost no effect)) | 5 (Herbicidal ratio of 90% or more (almost completely withered)) | 4 (Herbicidal ratio of 70% or higher and lower than 90%) | 3 (Herbicidal ratio of 40% or higher and lower than 70%) | 0 (Herbicidal ratio of 5% or lower (almost no effect)) | 0 (Herbicidal ratio of 5% or lower (almost no effect)) | 5 (Herbicidal ratio of 90% or more (almost completely withered)) | 0 (Herbicidal ratio of 5% or lower (almost no effect)) | 0 (Herbicidal ratio of 5% or lower (almost no effect)) | 5 (Herbicidal ratio of 90% or more (almost completely withered)) | –
COCC(CC1CC(O)=C(c2c(C)cc(C)cc2C)C1=O)=NOC (centres unmarked) [1-040] | 0 (Herbicidal ratio of 5% or lower (almost no effect)) | 5 (Herbicidal ratio of 90% or more (almost completely withered)) | 5 (Herbicidal ratio of 90% or more (almost completely withered)) | 1 (Herbicidal ratio of 5% or higher and lower than 20%) | 0 (Herbicidal ratio of 5% or lower (almost no effect)) | 0 (Herbicidal ratio of 5% or lower (almost no effect)) | 5 (Herbicidal ratio of 90% or more (almost completely withered)) | 5 (Herbicidal ratio of 90% or more (almost completely withered)) | 4 (Herbicidal ratio of 70% or higher and lower than 90%) | 0 (Herbicidal ratio of 5% or lower (almost no effect)) | 0 (Herbicidal ratio of 5% or lower (almost no effect)) | 4 (Herbicidal ratio of 70% or higher and lower than 90%) | 0 (Herbicidal ratio of 5% or lower (almost no effect)) | 0 (Herbicidal ratio of 5% or lower (almost no effect)) | 4 (Herbicidal ratio of 70% or higher and lower than 90%) | –
CON=C(C)CC1CC(OC(=O)COc2ccccc2)=C(c2c(C)cc(C)cc2C)C1=O (centres unmarked) [1-043] | 2 (Herbicidal ratio of 20% or higher and lower than 40%) | 5 (Herbicidal ratio of 90% or more (almost completely withered)) | 5 (Herbicidal ratio of 90% or more (almost completely withered)) | 4 (Herbicidal ratio of 70% or higher and lower than 90%) | 4 (Herbicidal ratio of 70% or higher and lower than 90%) | 2 (Herbicidal ratio of 20% or higher and lower than 40%) | 5 (Herbicidal ratio of 90% or more (almost completely withered)) | 5 (Herbicidal ratio of 90% or more (almost completely withered)) | 5 (Herbicidal ratio of 90% or more (almost completely withered)) | 2 (Herbicidal ratio of 20% or higher and lower than 40%) | 5 (Herbicidal ratio of 90% or more (almost completely withered)) | 5 (Herbicidal ratio of 90% or more (almost completely withered)) | 4 (Herbicidal ratio of 70% or higher and lower than 90%) | 4 (Herbicidal ratio of 70% or higher and lower than 90%) | 5 (Herbicidal ratio of 90% or more (almost completely withered)) | –
CON=C(CC1CC(O)=C(c2c(C)cc(C)cc2C)C1=O)C1CC1 (centres unmarked) [1-046] | 2 (Herbicidal ratio of 20% or higher and lower than 40%) | 5 (Herbicidal ratio of 90% or more (almost completely withered)) | 5 (Herbicidal ratio of 90% or more (almost completely withered)) | 3 (Herbicidal ratio of 40% or higher and lower than 70%) | 4 (Herbicidal ratio of 70% or higher and lower than 90%) | 4 (Herbicidal ratio of 70% or higher and lower than 90%) | 5 (Herbicidal ratio of 90% or more (almost completely withered)) | 5 (Herbicidal ratio of 90% or more (almost completely withered)) | 5 (Herbicidal ratio of 90% or more (almost completely withered)) | 4 (Herbicidal ratio of 70% or higher and lower than 90%) | 4 (Herbicidal ratio of 70% or higher and lower than 90%) | 5 (Herbicidal ratio of 90% or more (almost completely withered)) | 2 (Herbicidal ratio of 20% or higher and lower than 40%) | 3 (Herbicidal ratio of 40% or higher and lower than 70%) | 5 (Herbicidal ratio of 90% or more (almost completely withered)) | –
CON=C(C)CC1CC(OC(=O)COc2ccc(F)cc2)=C(c2c(C)cc(C)cc2C)C1=O (centres unmarked) [1-073] | – | 5 (Herbicidal ratio of 90% or more (almost completely withered)) | 5 (Herbicidal ratio of 90% or more (almost completely withered)) | – | 4 (Herbicidal ratio of 70% or higher and lower than 90%) | 1 (Herbicidal ratio of 5% or higher and lower than 20%) | 5 (Herbicidal ratio of 90% or more (almost completely withered)) | – | 5 (Herbicidal ratio of 90% or more (almost completely withered)) | – | – | 5 (Herbicidal ratio of 90% or more (almost completely withered)) | 5 (Herbicidal ratio of 90% or more (almost completely withered)) | – | – | M: Abutilon theophrasti, herbicidal effect (criteria 0-5) (Abutilon theophrasti): 4 (Herbicidal ratio of 70% or higher and lower than 90%); H: Echinochloa crus-galli var. crus-galli, herbicidal effect (criteria 0-5) [3]: 5 (Herbicidal ratio of 90% or more (almost completely withered)); R: Veronica persica, herbicidal effect (criteria 0-5) (Veronica persica): 3 (Herbicidal ratio of 40% or higher and lower than 70%); e: wheat, effect on crop (criteria 0-5) (wheat): 5 (Herbicidal ratio of 90% or more (almost completely withered)); d: soybean, effect on crop (criteria 0-5) (soybean): 3 (Herbicidal ratio of 40% or higher and lower than 70%); G: Setaria viridis, herbicidal effect (criteria 0-5) (Setaria viridis): 5 (Herbicidal ratio of 90% or more (almost completely withered))
